ChEMBL document CHEMBL4396935, “l-like 3-deazaneplanocin analogues: Synthesis and antiviral properties” (Bioorg Med Chem Lett, 2019)
Converted amounts (≈) assume the structure as drawn. The source made the active and inactive calls. No cut-off for these calls is given here.

How the values were obtained:
Ebolavirus = assay: Antiviral activity against Ebolavirus infected in African green monkey Vero cells by immunofluorescent assay; type: functional, organism-based; conditions: for EC50: Orthoebolavirus
Junin virus = assay: Antiviral activity against Junin virus; type: functional, organism-based; conditions: Mammarenavirus juninense
[1] = test system: Japanese encephalitis virus; assay: Antiviral activity against Japanese encephalitis virus; type: functional, organism-based
Lassa virus = assay: Antiviral activity against Lassa virus; type: functional, organism-based; conditions: Mammarenavirus lassaense
Pichinde virus = assay: Antiviral activity against Pichinde virus infected in African green monkey Vero cells assessed as reduction in virus induced cytopathic effect; type: functional, organism-based
Chikungunya virus = assay: Antiviral activity against Chikungunya virus; type: functional, organism-based
Tacaribe virus = assay: Antiviral activity against Tacaribe virus infected in African green monkey Vero cells assessed as reduction in virus induced cytopathic effect; type: functional, organism-based; conditions: Mammarenavirus tacaribeense
Human betaherpesvirus 5 = assay: Antiviral activity against human cytomegalovirus; type: functional, organism-based
Human adenovirus 5 = assay: Antiviral activity against Human adenovirus 5; type: functional, organism-based
H1N1 subtype = assay: Antiviral activity against Influenza A virus (H1N1); type: functional
[2] = Cytotoxicity against African green monkey Vero cells; type: cell-based; conditions: chlorocebus sabaeus
Zika virus = assay: Antiviral activity against Zika virus; type: functional, organism-based
Rift Valley fever virus = assay: Antiviral activity against Rift Valley fever virus; type: functional, organism-based
West Nile virus = assay: Antiviral activity against West Nile virus; type: functional, organism-based
Yellow fever virus = assay: Antiviral activity against Yellow fever virus; type: functional, organism-based
[3] = test system: Venezuelan equine encephalitis virus; assay: Antiviral activity against Venezuelan equine encephalitis virus; type: functional, organism-based
Punta Toro virus = assay: Antiviral activity against Punta Toro virus; type: functional, organism-based

Row | SMILES | EC50 (Ebolavirus) [µg/mL] | Activity (Junin virus) | Activity [1] | Activity (Lassa virus) | EC50 (Pichinde virus) [µg/mL] | Activity (Chikungunya virus) | EC50 (Tacaribe virus) [µg/mL] | Activity (Human betaherpesvirus 5) | Activity (Human adenovirus 5) | Activity (H1N1 subtype) | CC50 [2] [µg/mL] | Activity (Zika virus) | Activity (Rift Valley fever virus) | Activity (Pichinde virus) | Activity (West Nile virus) | Activity (Ebolavirus) | Activity (Tacaribe virus) | Activity (Yellow fever virus) | Activity [3] | Activity (Punta Toro virus)
1 | NC(=O)c1nc(F)cnc1O [FAVIPIRAVIR] | 18.6 (≈ 118 µM) | – | – | – | – | – | – | – | – | – | – | – | – | – | – | – | – | – | – | –
2 | Nc1ncc(Br)c2c1ncn2[C@H]1C=C(CO)[C@H](O)[C@@H]1O | 4.2 (≈ 12.3 µM) | inactive | inactive | inactive | > 100 | inactive | > 100 | inactive | inactive | inactive | 83 to 100 (≈ 243 to 293 µM) | – | – | – | – | – | – | – | – | –
3 | Nc1nccc2c1ncn2[C@H]1C=C(CF)[C@H](O)[C@@H]1O | – | inactive | inactive | inactive | – | inactive | – | inactive | inactive | inactive | – | inactive | inactive | inactive | inactive | inactive | inactive | inactive | inactive | inactive
4 | Nc1nccc2c1ncn2[C@H]1C=C(CO)[C@H](O)[C@@H]1O | 8.7 (≈ 33.2 µM) | inactive | inactive | inactive | 0.9 (≈ 3.43 µM) | inactive | 1.3 (≈ 4.96 µM) | inactive | inactive | inactive | 12 to 85 (≈ 45.8 to 324 µM) | – | – | – | – | – | – | – | – | –
5 | NC(=O)c1ncn([C@@H]2O[C@H](CO)[C@@H](O)[C@H]2O)n1 [RIBAVIRIN] | – | – | – | – | 12 (≈ 49.1 µM) | – | 9.3 (≈ 38.1 µM) | – | – | – | – | – | – | – | – | – | – | – | – | –
